Laboratory results from paper PMC4245125, “Pharmacological and Behavioral Characterization of D-473, an Orally Active Triple Reuptake Inhibitor Targeting Dopamine, Serotonin and Norepinephrine Transporters” (PLoS ONE, 2014).

Legend:
BZP Rat Brain Site = assay: NIMH PDSP receptor binding, BZP Rat Brain Site; details: 3H-Flunitrazepam
5HT1a = biological target: T1, 5HT1a (Homo sapiens, UniProt P08908); assay: NIMH PDSP receptor binding, 5HT1a; details: [3H]8-OH-DPAT, read-out: % Inhibition of Binding at 10 µM D-473
T1 construct: purchased NIMH PDSP

κ-opioid = biological target: T2, κ-opioid (Homo sapiens, UniProt P41145); assay: NIMH PDSP receptor binding, κ-opioid; details: [3H]Bremazocine, read-out: % Inhibition of Binding at 10 µM D-473
T2 construct: purchased NIMH PDSP

5HT1b = biological target: T3, 5HT1b (Homo sapiens, UniProt P28222); assay: NIMH PDSP receptor binding, 5HT1b; details: [3H]GR-125743, read-out: % Inhibition of Binding at 10 µM D-473
T3 construct: purchased NIMH PDSP

5HT2b = 5HT2b (Homo sapiens, UniProt P41595); assay: NIMH PDSP receptor binding, 5HT2b; details: [3H]LSD
[1] = Brain uptake after oral administration in rats; type: in vivo; details: rat, 25 mg/kg PO
Experimental: Sample preparation: Following oral administration of 25 mg/kg of D-473 and D-142 in male Sprague Dawley rats, the blood samples were collected at different time points over a period of 8 h for analysis. Concentrations of D-473 and D-142 in plasma were quantitated using a set of calibration standards prepared in blank matrix that were processed in parallel. Plasma concentration evaluation was carried out by the CRO, Absorption System, PA. Additionally, brain uptake studies of D-473 were carried out at three different time points (2, 4 and 6 h) following oral administration of 25 mg/kg D-473. Concentrations of D-473 in rat brain were quantitated using a set of calibration standards which were prepared in blank brain homogenate matrix on the day of analysis. The standard samples (5, 10, 25, 100, 500, 1000, and 2000 ng/mL) for calibration curve were prepared by spiking 45 µL of blank rat plasma with 5 µL of appropriate working dilution of D-473 in acetonitrile. The bioanalytical sample preparation for brain and plasma analysis followed by quantification of test compounds entailed the addition of 250 µL acetonitrile to every 50 µL of standard and analyte samples to precipitate tissue plasma proteins and tissue macromolecules. These mixtures were then vortexed for 15 min at 1400 rpm. The suspensions were then clarified by centrifugation (18000 g, 10 min at 4°C), and each 150 µL of the resulting supernatant was mixed well with 50 µL 0.1% formic acid in 50/50 (v/v) ACN/water solution for about 10 sec. The mixtures were again centrifuged (18000 g, 10 min at 4°C) before 100 µL of clear supernatant were transferred to auto sampler vials for LC-MS/MS analysis.
The analysis of brain samples was performed using Waters (Milford, MA, USA) Acquity UPLC instrument with a triple quadrupole (TQD) MS analyzer. The LC-MS/MS detection was performed using a positive Multiple Reaction Monitoring (MRM) method by monitoring the ion transition of D-473 from m/z 440.39 → 121.03. The MS/MS conditions include capillary voltage, 2.92 kV, cone voltage, 26.0 V; source temperature, 150°C; desolvation temperature, 350°C; desolvation gas flow, 500 L/hr; and collision energy, 33 eV. The MS control and data acquisition were collected using the Waters MassLynx software v4.1. Chromatographic conditions were achieved using a reverse phase C-18 ethylene bridged hybrid column (BEH C18) (2.1×100 mm, 1.7 µM). 5 µL of sample solutions were injected and samples were eluted using 0.1% formic acid in water (solvent A) and 0.1% formic acid in ACN (solvent B) mixture with a flow rate of 0.2 mL/min. Gradient elution of the mobile phase was 90% A to 5% A from 0 to 1 min, 5% A, 95% B from 1 to 3 min, and 5% A to 90% A from 3 to 5 min.

5HT1e = biological target: T4, 5HT1e (Homo sapiens, UniProt P28566); assay: NIMH PDSP receptor binding, 5HT1e; details: [3H]5-HT, read-out: % Inhibition of Binding at 10 µM D-473
T4 construct: purchased NIMH PDSP

D1 = D1 (Homo sapiens, UniProt P21728); assay: NIMH PDSP receptor binding, D1
D4 = biological target: T5, D4 (Homo sapiens, UniProt P21917); assay: NIMH PDSP receptor binding, D4; details: [3H]N-methylspiperone, read-out: % Inhibition of Binding at 10 µM D-473
T5 construct: purchased NIMH PDSP

5HT2a = biological target: T6, 5HT2a (Homo sapiens, UniProt P28223); assay: NIMH PDSP receptor binding, 5HT2a; details: [3H]ketanserin, read-out: % Inhibition of Binding at 10 µM D-473
T6 construct: purchased NIMH PDSP

D3 = biological target: T7, D3 (Homo sapiens, UniProt P35462); assay: NIMH PDSP receptor binding, D3; details: [3H]N-methylspiperone, read-out: % Inhibition of Binding at 10 µM D-473
T7 construct: purchased NIMH PDSP

Alpha2A = biological target: T8, Alpha2A (Homo sapiens, UniProt P08913); assay: NIMH PDSP receptor binding, Alpha2A; details: [3H]Clonidine, read-out: % Inhibition of Binding at 10 µM D-473
T8 construct: purchased NIMH PDSP

D2 = biological target: T9, D2 (Homo sapiens, UniProt P14416); assay: NIMH PDSP receptor binding, D2; details: [3H]N-methylspiperone, read-out: % Inhibition of Binding at 10 µM D-473
T9 construct: purchased NIMH PDSP

5HT2c = biological target: T10, 5HT2c (Homo sapiens, UniProt P28335); assay: NIMH PDSP receptor binding, 5HT2c; details: [3H]Mesulergine, read-out: % Inhibition of Binding at 10 µM D-473
T10 construct: purchased NIMH PDSP
T10 sequence (P28335 33-458): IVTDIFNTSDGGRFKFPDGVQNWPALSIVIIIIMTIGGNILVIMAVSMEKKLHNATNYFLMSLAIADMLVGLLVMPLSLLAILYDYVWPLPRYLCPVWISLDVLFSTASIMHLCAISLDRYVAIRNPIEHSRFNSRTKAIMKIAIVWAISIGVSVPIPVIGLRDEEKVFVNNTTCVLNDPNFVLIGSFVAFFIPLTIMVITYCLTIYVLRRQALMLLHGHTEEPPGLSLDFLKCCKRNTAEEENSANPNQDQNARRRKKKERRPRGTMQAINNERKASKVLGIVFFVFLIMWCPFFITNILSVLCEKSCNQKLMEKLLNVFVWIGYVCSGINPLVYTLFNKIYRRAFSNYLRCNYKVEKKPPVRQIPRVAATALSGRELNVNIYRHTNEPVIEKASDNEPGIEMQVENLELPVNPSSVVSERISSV

D1, sequence (P21728 whole entry): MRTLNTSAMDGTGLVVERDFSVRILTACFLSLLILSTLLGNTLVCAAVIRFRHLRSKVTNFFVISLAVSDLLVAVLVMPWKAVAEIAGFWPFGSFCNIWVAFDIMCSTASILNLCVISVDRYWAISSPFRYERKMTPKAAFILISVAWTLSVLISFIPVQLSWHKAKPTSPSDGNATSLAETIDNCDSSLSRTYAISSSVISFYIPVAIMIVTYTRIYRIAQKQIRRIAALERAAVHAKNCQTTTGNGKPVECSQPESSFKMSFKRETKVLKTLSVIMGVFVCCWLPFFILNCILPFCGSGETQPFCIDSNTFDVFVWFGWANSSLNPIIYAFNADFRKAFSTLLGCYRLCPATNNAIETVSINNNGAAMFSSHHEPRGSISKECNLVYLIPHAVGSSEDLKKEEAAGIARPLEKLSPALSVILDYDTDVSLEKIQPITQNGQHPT
5HT2b, sequence (P41595 whole entry): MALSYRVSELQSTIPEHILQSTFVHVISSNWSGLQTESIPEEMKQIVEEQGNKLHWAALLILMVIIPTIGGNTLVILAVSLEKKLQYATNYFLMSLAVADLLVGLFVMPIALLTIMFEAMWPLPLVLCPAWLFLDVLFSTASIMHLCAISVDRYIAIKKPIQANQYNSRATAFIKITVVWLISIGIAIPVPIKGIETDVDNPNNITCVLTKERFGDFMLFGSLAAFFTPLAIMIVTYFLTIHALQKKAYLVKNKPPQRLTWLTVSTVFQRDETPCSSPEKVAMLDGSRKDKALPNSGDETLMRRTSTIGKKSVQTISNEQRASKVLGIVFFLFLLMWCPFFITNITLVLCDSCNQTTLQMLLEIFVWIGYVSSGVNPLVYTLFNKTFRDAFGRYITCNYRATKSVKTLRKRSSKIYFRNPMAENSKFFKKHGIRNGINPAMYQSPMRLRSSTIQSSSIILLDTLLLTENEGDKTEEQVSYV
T3 sequence (P28222 whole entry): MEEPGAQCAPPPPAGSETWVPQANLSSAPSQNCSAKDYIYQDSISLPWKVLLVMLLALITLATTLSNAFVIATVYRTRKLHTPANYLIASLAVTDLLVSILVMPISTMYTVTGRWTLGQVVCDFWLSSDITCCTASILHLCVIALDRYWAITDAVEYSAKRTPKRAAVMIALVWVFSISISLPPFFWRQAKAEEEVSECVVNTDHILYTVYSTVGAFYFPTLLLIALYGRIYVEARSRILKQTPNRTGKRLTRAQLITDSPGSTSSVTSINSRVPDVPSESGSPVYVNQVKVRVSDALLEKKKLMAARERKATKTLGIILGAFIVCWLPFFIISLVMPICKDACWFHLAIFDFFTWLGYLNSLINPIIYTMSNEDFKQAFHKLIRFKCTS
T1 sequence (P08908 whole entry): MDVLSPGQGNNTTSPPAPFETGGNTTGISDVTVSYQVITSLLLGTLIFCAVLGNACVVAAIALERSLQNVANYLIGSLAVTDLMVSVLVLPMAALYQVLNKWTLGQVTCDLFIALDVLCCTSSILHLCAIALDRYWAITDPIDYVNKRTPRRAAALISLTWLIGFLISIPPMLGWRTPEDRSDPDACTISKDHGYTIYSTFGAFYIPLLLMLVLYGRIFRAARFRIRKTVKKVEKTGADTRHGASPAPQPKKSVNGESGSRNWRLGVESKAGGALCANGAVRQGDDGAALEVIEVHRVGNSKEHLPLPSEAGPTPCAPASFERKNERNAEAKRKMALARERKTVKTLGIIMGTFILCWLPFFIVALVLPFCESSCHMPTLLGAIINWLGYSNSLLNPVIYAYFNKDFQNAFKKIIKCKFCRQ
T6 sequence (P28223 whole entry): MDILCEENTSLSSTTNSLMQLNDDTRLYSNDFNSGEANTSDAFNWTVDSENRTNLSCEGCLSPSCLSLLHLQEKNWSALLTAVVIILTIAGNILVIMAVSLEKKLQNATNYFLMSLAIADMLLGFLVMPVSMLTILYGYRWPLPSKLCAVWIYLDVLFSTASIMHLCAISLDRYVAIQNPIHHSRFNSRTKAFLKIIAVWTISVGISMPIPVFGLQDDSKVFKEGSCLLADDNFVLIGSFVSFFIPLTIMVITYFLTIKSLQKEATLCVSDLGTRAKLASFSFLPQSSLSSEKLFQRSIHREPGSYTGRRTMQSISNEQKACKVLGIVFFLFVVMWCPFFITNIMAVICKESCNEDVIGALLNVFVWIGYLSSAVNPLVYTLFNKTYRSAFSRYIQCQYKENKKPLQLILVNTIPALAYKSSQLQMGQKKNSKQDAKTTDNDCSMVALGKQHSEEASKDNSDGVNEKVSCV
T4 sequence (P28566 whole entry): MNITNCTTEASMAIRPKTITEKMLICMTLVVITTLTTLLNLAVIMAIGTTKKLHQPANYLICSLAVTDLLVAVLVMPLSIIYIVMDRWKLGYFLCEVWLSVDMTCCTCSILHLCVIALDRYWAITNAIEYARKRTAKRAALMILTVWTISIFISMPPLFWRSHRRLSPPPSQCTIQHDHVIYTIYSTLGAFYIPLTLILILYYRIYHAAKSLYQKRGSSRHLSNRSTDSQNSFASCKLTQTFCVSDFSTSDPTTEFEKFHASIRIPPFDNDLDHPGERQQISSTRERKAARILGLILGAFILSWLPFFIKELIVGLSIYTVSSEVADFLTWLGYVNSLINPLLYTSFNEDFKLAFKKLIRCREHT
T5 sequence (P21917 whole entry): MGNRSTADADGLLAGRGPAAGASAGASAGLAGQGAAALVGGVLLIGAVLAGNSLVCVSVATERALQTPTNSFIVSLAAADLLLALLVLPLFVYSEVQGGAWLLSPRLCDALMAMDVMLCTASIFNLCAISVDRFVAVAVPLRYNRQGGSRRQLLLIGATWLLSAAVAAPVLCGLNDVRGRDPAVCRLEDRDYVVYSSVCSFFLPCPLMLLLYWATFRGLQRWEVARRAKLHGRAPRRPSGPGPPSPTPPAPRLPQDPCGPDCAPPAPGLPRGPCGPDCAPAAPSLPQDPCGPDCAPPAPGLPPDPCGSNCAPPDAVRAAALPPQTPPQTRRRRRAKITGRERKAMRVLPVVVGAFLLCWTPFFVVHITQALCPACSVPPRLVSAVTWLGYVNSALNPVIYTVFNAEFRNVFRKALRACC
T2 sequence (P41145 whole entry): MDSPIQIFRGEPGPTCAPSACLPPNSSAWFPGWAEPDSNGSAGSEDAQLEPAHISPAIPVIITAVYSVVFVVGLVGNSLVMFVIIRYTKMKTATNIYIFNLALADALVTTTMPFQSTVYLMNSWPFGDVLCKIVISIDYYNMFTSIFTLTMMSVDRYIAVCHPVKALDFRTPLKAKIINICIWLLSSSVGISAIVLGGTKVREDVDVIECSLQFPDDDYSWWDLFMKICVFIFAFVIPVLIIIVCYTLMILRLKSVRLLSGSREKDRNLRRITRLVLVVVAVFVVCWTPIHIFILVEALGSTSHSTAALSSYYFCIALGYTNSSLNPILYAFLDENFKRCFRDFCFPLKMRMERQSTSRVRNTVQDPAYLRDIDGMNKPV
T7 sequence (P35462 whole entry): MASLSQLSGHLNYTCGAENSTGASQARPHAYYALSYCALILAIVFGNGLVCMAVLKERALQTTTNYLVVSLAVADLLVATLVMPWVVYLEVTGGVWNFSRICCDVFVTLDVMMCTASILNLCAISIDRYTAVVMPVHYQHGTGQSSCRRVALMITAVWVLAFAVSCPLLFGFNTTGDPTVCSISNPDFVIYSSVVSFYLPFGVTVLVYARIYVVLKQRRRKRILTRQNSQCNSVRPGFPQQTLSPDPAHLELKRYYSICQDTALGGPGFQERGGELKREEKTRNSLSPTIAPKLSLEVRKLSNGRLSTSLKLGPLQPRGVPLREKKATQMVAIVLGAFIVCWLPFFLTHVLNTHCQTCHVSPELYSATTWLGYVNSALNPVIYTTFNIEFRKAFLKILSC
T8 sequence (P08913 whole entry): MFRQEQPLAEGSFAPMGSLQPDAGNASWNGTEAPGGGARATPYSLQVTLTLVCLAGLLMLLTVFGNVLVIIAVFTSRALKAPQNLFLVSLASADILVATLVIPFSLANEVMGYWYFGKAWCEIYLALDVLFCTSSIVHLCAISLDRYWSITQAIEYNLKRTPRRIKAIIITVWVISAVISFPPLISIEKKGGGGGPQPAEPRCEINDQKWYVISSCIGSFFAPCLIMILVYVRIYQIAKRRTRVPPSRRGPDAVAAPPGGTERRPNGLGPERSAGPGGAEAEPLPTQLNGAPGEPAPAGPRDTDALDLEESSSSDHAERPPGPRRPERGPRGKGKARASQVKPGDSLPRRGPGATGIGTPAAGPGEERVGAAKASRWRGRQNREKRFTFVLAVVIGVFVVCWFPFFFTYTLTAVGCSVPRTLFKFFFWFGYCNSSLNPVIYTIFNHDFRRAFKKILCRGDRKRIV

Question: Which results are given for `COc1ccc(CN[C@@H]2CO[C@H](C(c3ccc(F)cc3)c3ccc(F)cc3)C[C@H]2O)cc1` [Compound D-473, (2S,4R,5R)-2-(bis(4-fluorophenyl)methyl)-5-((4-methoxybenzyl)amino)tetrahydro-2H-pyran-4-ol]?
Answer: % Inhibition of Binding at 10 µM D-473 (BZP Rat Brain Site): −3%; inhibition at 10 µM (5HT1a): 35.4%; inhibition at 10 µM (κ-opioid): 48.5%; inhibition at 10 µM (5HT1b): 14.2%; inhibition at 10 µM (5HT2b; 10 µM, read-out: % Inhibition of Binding at 10 µM D-473): 70.8%; Ki (5HT2b; secondary assay, read-out: Ki for D-473): 597 nM; Kp at 2 h ([1]; male, Sprague-Dawley, brain and plasma, 2 h, read-out: Brain/plasma ratio): 0.76; Kp at 4 h ([1]; male, Sprague-Dawley, brain and plasma, 4 h, read-out: Brain/plasma ratio): 1.54; Kp at 6 h ([1]; male, Sprague-Dawley, brain and plasma, 6 h, read-out: Brain/plasma ratio): 1.22; concentration at 2 h ([1]; male, Sprague-Dawley, brain, 2 h): 264 ng/mL; concentration at 4 h ([1]; male, Sprague-Dawley, brain, 4 h, read-out: Concentration in the brain (peak)): 345 ng/mL; Concentration in the brain ([1]; 6 h): slightly lower than observed at 2 h; inhibition at 10 µM (5HT1e): 38%; inhibition at 10 µM (D1; [3H]SCH 23390, 10 µM, read-out: % Inhibition of Binding at 10 µM D-473): 62.2%; Ki (D1; [3H]SCH 23390, secondary assay, read-out: Ki for D-473): 630 nM; inhibition at 10 µM (D4): 37.2%; inhibition at 10 µM (5HT2a): 16.3%; inhibition at 10 µM (D3): 30.8%; inhibition at 10 µM (Alpha2A): 14.5%; inhibition at 10 µM (D2): 42.9%; inhibition at 10 µM (5HT2c): 45.4%
